We go through four molecules from US20250130239A1, “PROTEIN DEGRADER” (University of Dundee, priority 2021, published 2025).

Where two headings read alike, the source gives them in different places. A value given as a limit tells only on which side of the number the result lay.

One assay concerns the target T1, BromoTag-Brd2 (Homo sapiens, UniProt O60885+P40337, L387A).
T1 construct: comprising residues 368-440 of human Brd4; Brd2 (endogenous protein, fusion partner in the same polypeptide); eGFP-P2A (upstream marker in the knock-in cassette) (N, cleaved yes); expressed in transfected cells; host or cells: HEK293, heterozygous CRISPR knock-in at the endogenous BRD2 locus
As to the kind of experiment: Dose-response degradation assay (western blot, 6 h) in heterozygous BromoTag-Brd2 HEK293 cells. It is filed as cell-based. The note with it: for pDC50: second-generation B&H-PROTACs (diastereomeric mixtures), mean (±S.E) of three experiments; for hook effect: at the higher concentrations used, 1-10 μM. The protocol: Dose-response Degradation Assays. All dose-response degradation assays were performed on the genotype verified heterozygous BromoTag-Brd2 HEK293 cell line. Heterozygous BromoTag-Brd2 HEK293 cells were plated at a density of 5×10^5 cells per well of a six healthy plate a day before initiation of the titration experiment. PROTAC compounds were dissolved in DMSO at a concentration of 10 mM, from these stock concentrations, PROTAC compounds were diluted to appropriate concentrations using DMSO in the range of 10 μM-1 nM. […] Control compounds such as MZ1, cis-MZ1 were similarly dissolved in DMSO to the appropriate concentration. […] Cells were washed twice with PBS before being harvested.
Western Blotting. […] The membranes were blocked for 1 h prior to incubation with the primary antibodies using 5% Milk TBST. […] Following overnight incubation with the primary antibodies at 4° C., the membranes were incubated with secondary antibodies (Anti-rabbit, Abcam AB216773, 1:5000 or anti-mouse, Abcam AB216774, 1:5000) and hFAB™ Rhodamine Anti-Tubulin Antibody (Biorad, 12004165, 1:10000) for one h and then imaged with a Bio-Rad imager (LI-COR Biosciences). All western blots were analysed for band intensities using Image Lab from Bio-Rad (LI-COR, Biosciences). The data extracted from these blots were then plotted and analysed using Prism (v. 8.2.0, GraphPad).
(In western blotting, separated proteins are transferred to a membrane and probed.)

Assay [1] concerns untagged Brd2 and endogenous Brd3 and Brd4. As to the kind of experiment: Off-target degradation of endogenous BET proteins (western blot) in BromoTag-Brd2 HEK293 cells. It is filed as cell-based, human. The note with it: 1 nM to 10 μM; 6 h. The protocol: Dose-response Degradation Assays. All dose-response degradation assays were performed on the genotype verified heterozygous BromoTag-Brd2 HEK293 cell line. Heterozygous BromoTag-Brd2 HEK293 cells were plated at a density of 5×10^5 cells per well of a six healthy plate a day before initiation of the titration experiment. PROTAC compounds were dissolved in DMSO at a concentration of 10 mM, from these stock concentrations, PROTAC compounds were diluted to appropriate concentrations using DMSO in the range of 10 μM-1 nM. The compounds were then added to a 2 mL of DMEM (Invitrogen, Carlsebad, CA, USA) supplemented with 10% (v/v) Fetal bovine serum (FBS) (Thermo Fisher, Waltham, MA, USA) and 1% (v/v) penicillin/streptomycin (pen/strep) (#15140122, Thermo Fisher, Waltham, MA, USA) and added to the cells at initiation of the experiment. Control compounds such as MZ1, cis-MZ1 were similarly dissolved in DMSO to the appropriate concentration. All titration experiment were performed for a total of 6 hours prior to being harvested and were kept at 37° C., 5% CO2, and 95% humidity once treatment was applied until right before harvesting. Cells were washed twice with PBS before being harvested.
Western Blotting. […] Total protein quantity was determined using the BCA protein assay (#23225, Pierce, Rockford, Illinois). Protein concentration was determined using the BCA assay (ThermoFisher Scientific, 23225). […] All western blots were analysed for band intensities using Image Lab from Bio-Rad (LI-COR, Biosciences). The data extracted from these blots were then plotted and analysed using Prism (v. 8.2.0, GraphPad).
Development of a Knock-in Cell Line with BromoTag fused to endogenous Brd2 using CRISPR. […] To this end, the endogenous BET family protein Brd2 was chosen as a model target, due to the availability of well-established antibody for Brd2 detection, and expression of a single protein isoform as well detected band in the western blot (Filippakopoulos, P.; Knapp, S., Nat Rev Drug Discov. 2014, 13 (5), 337-356). […]

[2] abbreviates: Ab: Brd2, second-generation B&H-PROTACs, 6 h.
Setting [3] is: Ab: Brd4^BD2 L387A, second-generation B&H-PROTACs, 6 h.
Setting [4] is: 6 h, range over the two antibodies.

T1 sequence (P40337 whole entry, other chains not shown, the tested form may be a part): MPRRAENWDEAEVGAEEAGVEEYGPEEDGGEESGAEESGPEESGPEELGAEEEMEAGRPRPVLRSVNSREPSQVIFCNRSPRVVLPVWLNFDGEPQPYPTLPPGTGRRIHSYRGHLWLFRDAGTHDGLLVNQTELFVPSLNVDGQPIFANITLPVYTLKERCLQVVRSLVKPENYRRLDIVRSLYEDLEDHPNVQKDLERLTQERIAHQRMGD

`CC[C@@H](C(=O)NCCOCCCOCC(=O)N[C@H](C(=O)N1C[C@H](O)C[C@H]1C(=O)N[C@@H](C)c1ccc(-c2scnc2C)cc1)C(C)(C)C)[C@@H]1N=C(c2ccc(Cl)cc2)c2c(sc(C)c2C)-n2c(C)nnc21` (relative stereo) [ET-ARV-771 (21), (2S,4R)-1-((2S,15R*)-(tert-butyl)-15-((S*)-4-(4-chlorophenyl)-2,3,9-trimethyl-6H-thieno[3,2-f][1,2,4]triazolo[4,3-a][1,4]diazepin-6-yl)-4,14-dioxo-6,10-dioxa-3,13-diazaheptadecanoyl)-4-hydroxy-N—((S)-1-(4-(4-methylthiazol-5-yl)phenyl)ethyl)pyrrolidine-2-carboxamide] displayed a DC50 at BromoTag-Brd2 (6 h) of around 1000 nM. Also, the “Dmax, BromoTag-Brd2” value on BromoTag-Brd2 (6 h) is below 70%. Moreover, the pDC50 worked out at 5.7 ± 1.8 at BromoTag-Brd2 (Ab: Brd2, 6 h) and 6.1 ± 0.3 at BromoTag-Brd2 (Ab: Brd4^BD2 L387A, 6 h). Also, the entries for the “Dmax (%)” value at BromoTag-Brd2 (setting [2]) and at BromoTag-Brd2 (setting [3]) were 51% and 69%, respectively. On BromoTag-Brd2 (6 h), the hook effect entry is “strong hook effect”.

With `Cc1ncsc1-c1ccc([C@H](C)NC(=O)[C@@H]2C[C@@H](O)CN2C(=O)[C@@H](NC(=O)COCCCOCCNC(=O)[C@H](C)[C@@H]2N=C(c3ccc(Cl)cc3)c3c(sc(C)c3C)-n3c(C)nnc32)C(C)(C)C)cc1` (relative stereo) [ME-ARV-771 (20), (2S,4R)-1-((2S,15R*)-(tert-butyl)-15-((S*)-4-(4-chlorophenyl)-2,3,9-trimethyl-6H-thieno[3,2-f][1,2,4]triazolo[4,3-a][1,4]diazepin-6-yl)-4,14-dioxo-6,10-dioxa-3,13-diazahexadecanoyl)-4-hydroxy-N—((S)-1-(4-(4-methylthiazol-5-yl)phenyl)ethyl)pyrrolidine-2-carboxamide], the DC50 on BromoTag-Brd2 (setting [4]) was 320 to 400 nM. Moreover, the pDC50 is given as 6.4 ± 0.6 at BromoTag-Brd2 (Ab: Brd2, 6 h) and 6.5 ± 0.4 at BromoTag-Brd2 (Ab: Brd4^BD2 L387A, 6 h). For the same molecule, the “Dmax (%)” value at BromoTag-Brd2 (setting [2]) turned out to be 60%; at BromoTag-Brd2 (setting [3]), 70%.

`CC[C@@H](C(=O)NCCOCCOCCOCC(=O)N[C@H](C(=O)N1C[C@H](O)C[C@H]1C(=O)NCc1ccc(-c2scnc2C)cc1)C(C)(C)C)[C@@H]1N=C(c2ccc(Cl)cc2)c2c(sc(C)c2C)-n2c(C)nnc21` (relative stereo) [ET-MZ1 (19), (2S,4R)-1-((2S,17R*)-(tert-butyl)-17-((S*)-4-(4-chlorophenyl)-2,3,9-trimethyl-6H-thieno[3,2-f][1,2,4]triazolo[4,3-a][1,4]diazepin-6-yl)-4,16-dioxo-6,9,12-trioxa-3,15-diazanonadecanoyl)-4-hydroxy-N-(4-(4-methylthiazol-5-yl)benzyl)pyrrolidine-2-carboxamide]: the “off-target degradation of untagged Brd2 or the other endogenous BET proteins” value in assay [1] is “no observable off-target degradation”.

The molecule `CC[C@@H](C(=O)OCCOCCOCCOCC(=O)N[C@H](C(=O)N1C[C@H](O)C[C@H]1C(=O)NCc1ccc(-c2scnc2C)cc1)C(C)(C)C)[C@@H]1N=C(c2ccc(Cl)cc2)c2c(sc(C)c2C)-n2c(C)nnc21` (relative stereo) [ET-OMZ1 (23), (S)-13-((2S,4R)-4-hydroxy-2-((4-(4-methylthiazol-5-yl)benzyl)carbamoyl)pyrrolidine-1-carbonyl)-14,14-dimethyl-11-oxo-3,6,9-trioxa-12-azapentadecyl (R*)-2-((S*)-4-(4-chlorophenyl)-2,3,9-trimethyl-6H-thieno[3,2-f][1,2,4]triazolo[4,3-a][1,4]diazepin-6-yl)butanoate] yielded a DC50 on BromoTag-Brd2 (setting [4]) of 13 to 80 nM. Besides, the pDC50 is on record as 7.9 ± 0.2 on BromoTag-Brd2 (Ab: Brd2, 6 h) and 7.1 on BromoTag-Brd2 (Ab: Brd4^BD2 L387A, 6 h). Besides, the Dmax is 90% on BromoTag-Brd2 (HEK293, Ab: Brd4^BD2 L387A, second-generation B&H-PROTACs, 6 h) and above 75% on BromoTag-Brd2 (HEK293, read-out: Dmax, BromoTag-Brd2, 6 h). Further, the hook effect result at BromoTag-Brd2 (6 h) is “strong onset of the hook effect”. Also, in assay [1], the “off-target degradation of untagged Brd2 or the other endogenous BET proteins” value was “no observable off-target degradation”.

What is called DC50 is the concentration at which degradation of the target reaches its halfway point. Lower therefore signals a more potent degrader. By Dmax is commonly meant the largest share of the target that was removed.
